# Results: patent US20230085307A1, “PYRIDAZINONE COMPOUND AND HERBICIDE” (NISSAN CHEMICAL CORPORATION, priority 2019, published 2023)
# Columns and labels:
# [1] = system: Japanese bulrush; test: Test Example 2: herbicidal activity, application during weed generation under submerged conditions (Table 17, symbol B); assay type: in vivo, Japanese bulrush (Schoenoplectus juncoides); conditions: AAH 320 g/ha; application during weed generation, submerged conditions
# Procedure, shortened: (§1)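 Alluvial soil in Wagner pots was flooded to 4 cm depth and sown with the three weeds together; pots were kept in a greenhouse at 25° C. to 30° C. At the one to two leaf stage, an emulsion formulation diluted in water to a set rate went onto the water surface; scored three weeks later.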
# [2] = system: rice flat sedge; test: Test Example 3: herbicidal effect by foliage application, Wagner pot (Table 18, symbol E); assay type: in vivo, rice flat sedge (Cyperus iria); conditions: 320 g/ha
# Procedure, shortened: (§2)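 Plants were sown in alluvial soil held under 0.1–0.5 cm standing water and grown 14 days in a greenhouse at 25–30 °C. An emulsifiable formulation, water-diluted to the set dose, was then sprayed onto the foliage, and effects were scored three weeks later using previously defined criteria.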
# [3] = system: wild oat; test: Test Example 5: herbicidal effect by foliage application, plastic box (Table 20, symbol I); assay type: in vivo, wild oat (Avena fatua); conditions: 320 g/ha, foliage application after 14-day growth, evaluated three weeks after application
# Procedure, shortened: (§3)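 Sow seeds spot-wise in sterilized diluvial soil; cover with ~1.5 cm soil. Grow 14 days in greenhouse, 25° C. to 30° C. Spray foliage with emulsion diluted to predetermined amount. Rate effect after 3 weeks.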
# [4] = system: Chinese sprangletop; test: Test Example 3: herbicidal effect by foliage application, Wagner pot (Table 18, symbol D); assay type: in vivo, chinese sprangletop (Leptochloa chinensis); conditions: 320 g/ha
# Procedure, shortened: as §2
# [5] = system: persian speedwell; test: Test Example 5: herbicidal effect by foliage application, plastic box (Table 20, symbol R); assay type: in vivo, Persian speedwell (Veronica persica); conditions: 320 g/ha, foliage application after 14-day growth, evaluated three weeks after application
# Procedure, shortened: as §3
# [6] = system: late watergrass; test: Test Example 1: herbicidal activity, application before weed generation under submerged conditions (Table 16, symbol A); assay type: in vivo, late watergrass (Echinochloa oryzicola); conditions: amount of applied herbicide 320 g/ha
# Procedure, shortened: (§4)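 Emulsion formulation, water-diluted to set dose, was put onto the flooded surface (4 cm depth, alluvial soil) the same day weeds were sown and 2.5-leaf rice transplanted. After 3 weeks at 25-30 °C under glass, each species was rated 0 (≤5% kill) to 5 (≥90% kill).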
# [7] = system: windgrass; test: Test Example 5: herbicidal effect by foliage application, plastic box (Table 20, symbol L); assay type: in vivo, windgrass (Apera spica-venti); conditions: 320 g/ha, foliage application after 14-day growth, evaluated three weeks after application
# Procedure, shortened: as §3
# [8] = system: Japanese bulrush; test: Test Example 1: herbicidal activity, application before weed generation under submerged conditions (Table 16, symbol B); assay type: in vivo, Japanese bulrush (Schoenoplectus juncoides); conditions: amount of applied herbicide 320 g/ha
# Procedure, shortened: as §4
# [9] = system: lambsquarters; test: Test Example 5: herbicidal effect by foliage application, plastic box (Table 20, symbol O); assay type: in vivo, lambsquarters (Chenopodium album); conditions: 320 g/ha, foliage application after 14-day growth, evaluated three weeks after application
# Procedure, shortened: as §3
# [10] = system: blackgrass; test: Test Example 5: herbicidal effect by foliage application, plastic box (Table 20, symbol J); assay type: in vivo, blackgrass (Alopecurus myosuroides); conditions: 320 g/ha, foliage application after 14-day growth, evaluated three weeks after application
# Procedure, shortened: as §3
# [11] = system: Italian ryegrass; test: Test Example 5: herbicidal effect by foliage application, plastic box (Table 20, symbol K); assay type: in vivo, Italian ryegrass (Lolium multiflorum); conditions: 320 g/ha, foliage application after 14-day growth, evaluated three weeks after application
# Procedure, shortened: as §3
# [12] = system: southern crabgrass; test: Test Example 5: herbicidal effect by foliage application, plastic box (Table 20, symbol F); assay type: in vivo, southern crabgrass (Digitaria ciliaris); conditions: 320 g/ha, foliage application after 14-day growth, evaluated three weeks after application
# Procedure, shortened: as §3
# [13] = system: chickweed; test: Test Example 5: herbicidal effect by foliage application, plastic box (Table 20, symbol P); assay type: in vivo, common chickweed (Stellaria media); conditions: 320 g/ha, foliage application after 14-day growth, evaluated three weeks after application
# Procedure, shortened: as §3
# [14] = system: oval-leafed pondweed; test: Test Example 2: herbicidal activity, application during weed generation under submerged conditions (Table 17, symbol C); assay type: in vivo, oval-leafed pondweed (Monochoria vaginalis); conditions: AAH 320 g/ha; application during weed generation, submerged conditions
# Procedure, shortened: as §1
# [15] = system: late watergrass; test: Test Example 2: herbicidal activity, application during weed generation under submerged conditions (Table 17, symbol A); assay type: in vivo, late watergrass (Echinochloa oryzicola); conditions: AAH 320 g/ha; application during weed generation, submerged conditions
# Procedure, shortened: as §1
# [16] = system: redroot pigweed; test: Test Example 5: herbicidal effect by foliage application, plastic box (Table 20, symbol N); assay type: in vivo, redroot pigweed (Amaranthus retroflexus); conditions: 320 g/ha, foliage application after 14-day growth, evaluated three weeks after application
# Procedure, shortened: as §3
# [17] = system: oval-leafed pondweed; test: Test Example 1: herbicidal activity, application before weed generation under submerged conditions (Table 16, symbol C); assay type: in vivo, oval-leafed pondweed (Monochoria vaginalis); conditions: amount of applied herbicide 320 g/ha
# Procedure, shortened: as §4
# [18] = system: barnyard grass; test: Test Example 3: herbicidal effect by foliage application, Wagner pot (Table 18, symbol H); assay type: in vivo, barnyard grass (Echinochloa crus-galli); conditions: 320 g/ha
# Procedure, shortened: as §2
# [19] = system: green foxtail; test: Test Example 5: herbicidal effect by foliage application, plastic box (Table 20, symbol G); assay type: in vivo, green foxtail (Setaria viridis); conditions: 320 g/ha, foliage application after 14-day growth, evaluated three weeks after application
# Procedure, shortened: as §3
# [20] = system: velvetleaf; test: Test Example 5: herbicidal effect by foliage application, plastic box (Table 20, symbol M); assay type: in vivo, velvetleaf (Abutilon theophrasti); conditions: 320 g/ha, foliage application after 14-day growth, evaluated three weeks after application
# Procedure, shortened: as §3
# [21] = system: barnyard grass; test: Test Example 5: herbicidal effect by foliage application, plastic box (Table 20, symbol H); assay type: in vivo, barnyard grass (Echinochloa crus-galli); conditions: 320 g/ha, foliage application after 14-day growth, evaluated three weeks after application
# Procedure, shortened: as §3
smiles,measurement,setting,value
Cc1nn(C)c(=O)c(-c2c(-c3ccc(C(F)(F)F)cc3)sc3cc(Cl)ccc23)c1O [3-145],"herbicidal effect rating, B: Japanese bulrush",[1],2 (Herbicidal rate of 20% or more and less than 40%)
same,herbicidal effect on rice flat sedge (E),[2],4 (Herbicidal rate of 70% or more and less than 90%)
same,herbicidal effect on I: wild oat (evaluation grade 0-5),[3],0 (Herbicidal rate of 5% or less (almost no effect))
same,herbicidal effect on Chinese sprangletop (D),[4],5 (Herbicidal rate of 90% or more (almost completely withered))
same,herbicidal effect on R: persian speedwell (evaluation grade 0-5),[5],0 (Herbicidal rate of 5% or less (almost no effect))
same,"Herbicidal effect, A: late watergrass",[6],3 (Herbicidal rate of 40% or more and less than 70%)
same,herbicidal effect on L: windgrass (evaluation grade 0-5),[7],5 (Herbicidal rate of 90% or more (almost completely withered))
same,"Herbicidal effect, B: Japanese bulrush",[8],2 (Herbicidal rate of 20% or more and less than 40%)
same,herbicidal effect on O: lambsquarters (evaluation grade 0-5),[9],3 (Herbicidal rate of 40% or more and less than 70%)
same,herbicidal effect on J: blackgrass (evaluation grade 0-5),[10],0 (Herbicidal rate of 5% or less (almost no effect))
same,herbicidal effect on K: Italian ryegrass (evaluation grade 0-5),[11],0 (Herbicidal rate of 5% or less (almost no effect))
same,herbicidal effect on F: southern crabgrass (evaluation grade 0-5),[12],0 (Herbicidal rate of 5% or less (almost no effect))
same,herbicidal effect on P: chickweed (evaluation grade 0-5),[13],0 (Herbicidal rate of 5% or less (almost no effect))
same,"herbicidal effect rating, C: oval-leafed pondweed",[14],0 (Herbicidal rate of 5% or less (almost no effect))
same,"herbicidal effect rating, A: late watergrass",[15],3 (Herbicidal rate of 40% or more and less than 70%)
same,herbicidal effect on N: redroot pigweed (evaluation grade 0-5),[16],3 (Herbicidal rate of 40% or more and less than 70%)
same,"Herbicidal effect, C: oval-leafed pondweed",[17],0 (Herbicidal rate of 5% or less (almost no effect))
same,herbicidal effect on barnyard grass (H),[18],3 (Herbicidal rate of 40% or more and less than 70%)
same,herbicidal effect on G: green foxtail (evaluation grade 0-5),[19],2 (Herbicidal rate of 20% or more and less than 40%)
same,herbicidal effect on M: velvetleaf (evaluation grade 0-5),[20],3 (Herbicidal rate of 40% or more and less than 70%)
same,herbicidal effect on H: barnyard grass (evaluation grade 0-5),[21],0 (Herbicidal rate of 5% or less (almost no effect))
CCCC(=O)Oc1c(C)nn(C)c(=O)c1-c1c(-c2ccc(C)cc2)sc2c(Cl)cccc12 [4-020],"herbicidal effect rating, B: Japanese bulrush",[1],3 (Herbicidal rate of 40% or more and less than 70%)
same,herbicidal effect on rice flat sedge (E),[2],5 (Herbicidal rate of 90% or more (almost completely withered))
same,herbicidal effect on I: wild oat (evaluation grade 0-5),[3],3 (Herbicidal rate of 40% or more and less than 70%)
same,herbicidal effect on Chinese sprangletop (D),[4],5 (Herbicidal rate of 90% or more (almost completely withered))
same,herbicidal effect on R: persian speedwell (evaluation grade 0-5),[5],5 (Herbicidal rate of 90% or more (almost completely withered))
same,"Herbicidal effect, A: late watergrass",[6],4 (Herbicidal rate of 70% or more and less than 90%)
same,herbicidal effect on L: windgrass (evaluation grade 0-5),[7],5 (Herbicidal rate of 90% or more (almost completely withered))
same,"Herbicidal effect, B: Japanese bulrush",[8],3 (Herbicidal rate of 40% or more and less than 70%)
same,herbicidal effect on O: lambsquarters (evaluation grade 0-5),[9],2 (Herbicidal rate of 20% or more and less than 40%)
same,herbicidal effect on J: blackgrass (evaluation grade 0-5),[10],0 (Herbicidal rate of 5% or less (almost no effect))
same,herbicidal effect on K: Italian ryegrass (evaluation grade 0-5),[11],4 (Herbicidal rate of 70% or more and less than 90%)
same,herbicidal effect on F: southern crabgrass (evaluation grade 0-5),[12],0 (Herbicidal rate of 5% or less (almost no effect))
same,herbicidal effect on P: chickweed (evaluation grade 0-5),[13],5 (Herbicidal rate of 90% or more (almost completely withered))
same,"herbicidal effect rating, C: oval-leafed pondweed",[14],0 (Herbicidal rate of 5% or less (almost no effect))
same,"herbicidal effect rating, A: late watergrass",[15],0 (Herbicidal rate of 5% or less (almost no effect))
same,herbicidal effect on N: redroot pigweed (evaluation grade 0-5),[16],5 (Herbicidal rate of 90% or more (almost completely withered))
same,"Herbicidal effect, C: oval-leafed pondweed",[17],0 (Herbicidal rate of 5% or less (almost no effect))
same,herbicidal effect on barnyard grass (H),[18],4 (Herbicidal rate of 70% or more and less than 90%)
same,herbicidal effect on G: green foxtail (evaluation grade 0-5),[19],0 (Herbicidal rate of 5% or less (almost no effect))
same,herbicidal effect on M: velvetleaf (evaluation grade 0-5),[20],5 (Herbicidal rate of 90% or more (almost completely withered))
same,herbicidal effect on H: barnyard grass (evaluation grade 0-5),[21],0 (Herbicidal rate of 5% or less (almost no effect))
CCCC(=O)Oc1c(C)nn(C)c(=O)c1-c1c(-c2ccc(Cl)cc2)sc2c(F)cccc12 [4-041],"herbicidal effect rating, B: Japanese bulrush",[1],3 (Herbicidal rate of 40% or more and less than 70%)
same,herbicidal effect on rice flat sedge (E),[2],5 (Herbicidal rate of 90% or more (almost completely withered))
same,herbicidal effect on I: wild oat (evaluation grade 0-5),[3],3 (Herbicidal rate of 40% or more and less than 70%)
same,herbicidal effect on Chinese sprangletop (D),[4],4 (Herbicidal rate of 70% or more and less than 90%)
same,herbicidal effect on R: persian speedwell (evaluation grade 0-5),[5],5 (Herbicidal rate of 90% or more (almost completely withered))
same,"Herbicidal effect, A: late watergrass",[6],3 (Herbicidal rate of 40% or more and less than 70%)
same,herbicidal effect on L: windgrass (evaluation grade 0-5),[7],4 (Herbicidal rate of 70% or more and less than 90%)
same,"Herbicidal effect, B: Japanese bulrush",[8],0 (Herbicidal rate of 5% or less (almost no effect))
same,herbicidal effect on O: lambsquarters (evaluation grade 0-5),[9],3 (Herbicidal rate of 40% or more and less than 70%)
same,herbicidal effect on J: blackgrass (evaluation grade 0-5),[10],1 (Herbicidal rate of 5% or more and less than 20%)
same,herbicidal effect on K: Italian ryegrass (evaluation grade 0-5),[11],3 (Herbicidal rate of 40% or more and less than 70%)
same,herbicidal effect on F: southern crabgrass (evaluation grade 0-5),[12],0 (Herbicidal rate of 5% or less (almost no effect))
same,herbicidal effect on P: chickweed (evaluation grade 0-5),[13],5 (Herbicidal rate of 90% or more (almost completely withered))
same,"herbicidal effect rating, C: oval-leafed pondweed",[14],0 (Herbicidal rate of 5% or less (almost no effect))
same,"herbicidal effect rating, A: late watergrass",[15],0 (Herbicidal rate of 5% or less (almost no effect))
same,herbicidal effect on N: redroot pigweed (evaluation grade 0-5),[16],5 (Herbicidal rate of 90% or more (almost completely withered))
same,"Herbicidal effect, C: oval-leafed pondweed",[17],0 (Herbicidal rate of 5% or less (almost no effect))
same,herbicidal effect on barnyard grass (H),[18],5 (Herbicidal rate of 90% or more (almost completely withered))
same,herbicidal effect on G: green foxtail (evaluation grade 0-5),[19],3 (Herbicidal rate of 40% or more and less than 70%)
same,herbicidal effect on M: velvetleaf (evaluation grade 0-5),[20],5 (Herbicidal rate of 90% or more (almost completely withered))
same,herbicidal effect on H: barnyard grass (evaluation grade 0-5),[21],4 (Herbicidal rate of 70% or more and less than 90%)
